This is an account of results in PubChem BioAssay (NCI).

Values joined by “and” are separate entries in the source; they are usually repeats but may differ in a detail not shown here. Equal entries are not always repeated.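 Test compounds were applied to cells in 96-well plates for 48 hours at 5 doses. GI50 marks 50% less growth. The concentration for full growth arrest is given as TGI.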 Bounds are passed on as bounds.

Test systems include MDA-MB-231 breast; NCI/ADR-RES ovarian; DMS 114 small cell lung; SNB-78 CNS; XF 498 CNS; KM20L2 colon; MDA-N; HOP-18 NSCLC.
What all share (experiment): DTP human tumour cell line panel, 48 h

In the case of `O=C(CCCCCn1c2ccccc2c2c3c(c4c5ccccc5[nH]c4c21)C(=O)N(O)C3=O)N1CCOCC1`, in the assay with MDA-MB-231 breast, the GI50 – broadly, the concentration giving 50% growth inhibition – was 2.16 µM and the TGI – broadly, the concentration giving total growth inhibition – was found to be 5.87 µM. Further, in the assay with NCI/ADR-RES ovarian, the GI50 was 5.93 µM and the concentration for total growth inhibition (TGI) is over 100 µM.
Regarding `c1cc(C2O[C@H]3CCCN3[C@@H]2c2ccncc2)ccn1` (stereo not given in full), the TGI in the assay on DMS 114 small cell lung, in the assay on SNB-78 CNS, in the assay on XF 498 CNS and with KM20L2 colon was over 100 µM in each case.
With `COc1cccc(-n2cnc3c(N/N=C/c4ccncc4)ncnc32)c1`, in the assay on MDA-MB-231 breast, the GI50 was over 20.3 µM and the TGI was over 25 µM. Moreover, in the assay on NCI/ADR-RES ovarian, the GI50 is over 25 µM and the TGI was over 25 µM.
`O=C(O)c1cc(/C=C/c2ccc(O)c(O)c2)ccc1O`: the concentration for total growth inhibition (TGI) in the assay with MDA-N, in the assay on MDA-MB-231 breast and with NCI/ADR-RES ovarian was over 100 µM throughout.
On to `CC(=O)c1c[nH]c2ccc(-c3ccnc(Nc4ccc(NC(=O)c5cccc(F)c5)c(CN5CCOCC5)c4)n3)cc12`, for which, in the assay on MDA-MB-231 breast, the GI50 is 0.177 µM and the TGI amounted to 1.3 µM. In the assay with NCI/ADR-RES ovarian, the 50% growth inhibitory concentration (GI50) was 0.273 µM and the TGI turned out to be 4.35 µM.
As to `O=C(NCCc1ccccc1)C(c1csc2ccccc12)N(C(=O)CCl)c1ccc(-c2cnco2)cc1` (stereo not given), in the assay on MDA-MB-231 breast, the GI50 is 0.226 µM and the TGI was 1.36 µM. In the assay with NCI/ADR-RES ovarian, the concentration for 50% growth inhibition (GI50) was 0.114 µM and the TGI is 1.17 µM.
As for `CN1CCN(c2nc(C3=C(c4c[nH]c5ccccc45)C(=O)NC3=O)c3ccccc3n2)CC1`, in the assay with MDA-MB-231 breast, the GI50 was 22.2 µM and 17.3 µM; the TGI is 60.6 µM and 39.4 µM. Besides, in the assay on NCI/ADR-RES ovarian, the GI50 was 25.4 µM and the TGI was determined as 65 µM.
On to `S=c1sc2ccccc2n1CN1CCN(Cc2ccccc2)CC1`, for which the concentration for total growth inhibition (TGI) with NCI/ADR-RES ovarian was over 100 µM.
As for `N#CC1=C(N)NC(=S)NC1c1ccc(-c2ccc(-c3nc4ccccc4s3)cc2)o1` (stereo not given), in the assay with MDA-MB-231 breast, the GI50 is 16.3 µM and the TGI was over 50 µM. Also, in the assay with NCI/ADR-RES ovarian, the GI50 is over 50 µM and the total growth inhibition concentration (TGI) was over 50 µM.
For the compound `NS(=O)(=O)OC[C@H]1O[C@@H](n2cnc3c(N[C@H]4CCc5ccccc54)ncnc32)[C@H](O)[C@@H]1O`, in the assay on MDA-MB-231 breast, the GI50 was 0.47 µM and the TGI stood at 2.92 µM. Further, in the assay with NCI/ADR-RES ovarian, the GI50 is 5.05 µM and the total growth inhibition concentration (TGI) is over 100 µM.
Turning to `CCCCCc1c(C)[nH]c(/C=C2\N=C(c3ccc[nH]3)C=C2Oc2ccc(OC)cc2)c1C`, in the assay with MDA-MB-231 breast, the GI50 is 0.0833 µM and 0.0117 µM. Besides, in the assay on NCI/ADR-RES ovarian, the GI50 is 0.37 µM and 0.203 µM; the TGI was 2.13 µM and 1.14 µM.
Consider `O=C(/C=C/c1ccccc1O)CC(=O)/C=C/c1ccccc1O`, for which the total growth inhibition concentration (TGI) in the assay on MDA-N is 13.3 µM; in the assay on NCI/ADR-RES ovarian, 14.5 µM.
As for `C=CC[n+]1c(/C=C2\Sc3ccccc3N2C)sc(-c2ccccc2)c1-c1ccccc1`, in the assay with MDA-MB-231 breast, the GI50 was 0.287 µM and the total growth inhibition concentration (TGI) amounted to 2.99 µM. Besides, in the assay on NCI/ADR-RES ovarian, the GI50 was 7.89 µM and the TGI stood at 61.7 µM.
`O=C1C=Cc2cc3ccccc3c3cccc1c23`: in the assay with MDA-MB-231 breast, the GI50 was 4.72 µM and the total growth inhibition concentration (TGI) was determined as 29 µM. In the assay with NCI/ADR-RES ovarian, the GI50 was 3.33 µM and the TGI was 19.2 µM.
Consider `CCOC(=O)C(=C=Cc1cccs1)C(=O)c1ccccc1`, for which the concentration for total growth inhibition (TGI) in the assay with SNB-78 CNS came out at 47.5 µM; with XF 498 CNS, 32.6 µM; with HOP-18 NSCLC it was 34 µM.
As to `COc1cc2c(cc1OC)[C@@H]1[C@H](C2=O)c2ccc([N+](=O)[O-])cc2C(=O)N1CCCBr`, in the assay on MDA-MB-231 breast, the GI50 was 1.45 µM. The figures for the total growth inhibition concentration (TGI) in the assay on MDA-MB-231 breast and in the assay on NCI/ADR-RES ovarian were 6.61 µM and 9.93 µM, respectively.
Turning to `COc1ccc2c(c1)Cc1cc(N=[N+]([O-])c3ccc4c(c3)Cc3cc(OC)ccc3-4)ccc1-2`, the concentration for total growth inhibition (TGI) with MDA-N, in the assay on MDA-MB-231 breast and in the assay on NCI/ADR-RES ovarian was over 100 µM in each case.
As for `CN1CCN(c2nc(NCCNc3ccnc4cc(Cl)ccc34)c3ccccc3n2)CC1`, in the assay on MDA-MB-231 breast, the GI50 is 1.37 µM and the TGI amounted to 3.14 µM. In the assay on NCI/ADR-RES ovarian, the GI50 was 16 µM and the concentration for total growth inhibition (TGI) turned out to be 37 µM.
As to `O=c1cc(N2CCOCC2)oc2c(-c3ccccc3)cccc12`, the TGI with MDA-N was 50.3 µM; in the assay on MDA-MB-231 breast it was 97.3 µM and 19.6 µM; in the assay with NCI/ADR-RES ovarian, 85.2 µM and 24.3 µM. Besides, the GI50 with MDA-MB-231 breast is 5.85 µM; with NCI/ADR-RES ovarian, 6.35 µM.
As to `CC(C)CCC[C@@H](C)C1CCC2[C@@H]3CC=C4C[C@@H](OC(=O)CCC(=O)NCC[N+](C)(C)CCCS(=O)(=O)[O-])CC[C@]4(C)C3CC[C@@]21C` (stereo not given in full), the total growth inhibition concentration (TGI) is 36.1 µM in the assay with DMS 114 small cell lung, 70.1 µM in the assay with SNB-78 CNS, over 100 µM in the assay on KM20L2 colon and 97.2 µM in the assay on HOP-18 NSCLC.
As to `COc1ccc(-c2ccc(/C=N/n3cnn(CN4CCN(C)CC4)c3=S)o2)c([N+](=O)[O-])c1`, in the assay on MDA-MB-231 breast, the GI50 was 25.3 µM and the concentration for total growth inhibition (TGI) worked out at 77.1 µM.
With `COC(=O)c1ccc2c(c1)[n+](=O)c(C(C)=O)c(C(F)(F)F)n2[O-]`, in the assay on MDA-MB-231 breast, the GI50 is 1.98 µM and the concentration for total growth inhibition (TGI) worked out at 3.88 µM. In the assay with NCI/ADR-RES ovarian, the GI50 is 2.48 µM and the TGI is 6.41 µM.
Consider `Oc1ccc(Br)cc1CN1CCN(Cc2ccc(Cl)cc2)CC1`, for which the GI50 with MDA-MB-231 breast is 17 µM; with NCI/ADR-RES ovarian, 17.2 µM. Also, the concentration for total growth inhibition (TGI) in the assay with MDA-MB-231 breast was 59.4 µM; with NCI/ADR-RES ovarian, over 100 µM.
For `CC(C)=CCNc1ncnc2c1ncn2C1OC(COP(=O)(O)O)C(O)C1O` (stereo not given), in the assay on MDA-MB-231 breast, the GI50 was 1.85 µM and the concentration for total growth inhibition (TGI) was 5.48 µM. Besides, in the assay on NCI/ADR-RES ovarian, the GI50 is 5.85 µM and the TGI was over 100 µM.
For `COc1cc(Oc2cnc3cc(N)cc(N)c3n2)cc(OC)c1OC`, the results for the GI50 with MDA-MB-231 breast and in the assay on NCI/ADR-RES ovarian were 29.4 µM and 30.6 µM, respectively. Moreover, the concentration for total growth inhibition (TGI) with MDA-MB-231 breast is 95.8 µM; with NCI/ADR-RES ovarian, over 100 µM.
With `CC(=N\O)/C(C)=N/O.CC(=N\O)/C(C)=N/O.[Pd]`, the figures for the GI50 in the assay on MDA-N, with MDA-MB-231 breast and with NCI/ADR-RES ovarian were 2.15 µM, 3.3 µM and 3.18 µM, respectively. The total growth inhibition concentration (TGI) in the assay with MDA-N was determined as 4.87 µM; with MDA-MB-231 breast it was 9.03 µM; with NCI/ADR-RES ovarian it was 7.72 µM.
